In patent US7560464B2, “Polycyclic pyrimidines as potassium ion channel modulators” (Icagen, Inc., priority 2004, dated 2009):

biological target: hSK2 (Homo sapiens, UniProt Q9H2S1); test: Assay for compound activity towards hSK channels (86Rb+ efflux); format: cell-based; conditions: 86Rb+ efflux stimulated with calcium ionophore; drug 0.01 to 30 μM in EBSS; read-out: hSK2 Inhibitory Activity
Description: 20.1 Assay for Compound Activity Towards hSK Channels
Cells expressing small conductance, calcium activated potassium channels, such as SK-like channels were loaded with ^86Rb^+ by culture in media containing ^86RbCl. Following loading, the culture media was removed and the cells were washed in EBSS to remove residual traces of ^86Rb^+. Cells were preincubated with the drug (0.01 to 30 μM in EBSS) and then ^86Rb^+ efflux was stimulated by exposing cells to EBSS solution supplemented with a calcium ionophore, such as ionomycin, in the continued presence of the drug. After a suitable efflux period, the EBSS/ionophore solution was removed from the cells and the ^86Rb^+ content was determined by Cherenkov counting (Wallac Trilux). Cells were then lysed with a SDS solution and the ^86Rb^+ content of the lysate was determined. Percent ^86Rb^+ efflux was calculated according to the following equation: (^86Rb^+ content in EBSS/(^86Rb^+ content in EBSS+^86Rb^+ content of the lysate))×100 20.2 Results

Compound	IC50 [µM]
COc1cnc(-c2ccccn2)nc1Nc1ccc([N+](=O)[O-])cn1 [(5-Methoxy-2-pyridin-2-yl-pyrimidin-4-yl)-(5-nitro-pyridin-2-yl)-amine]	5 to 30
COc1cnc(-c2ccccn2)nc1Nc1ccc(N2CCCC2=O)cn1 [1-[6-(5-Methoxy-2-pyridin-2-yl-pyrimidin-4-ylamino)-pyridin-3-yl]-pyrrolidin-2-one]	< 0.1
FC(F)(F)c1ccc(Nc2nccc(-c3ccccn3)n2)nc1 [(4-Pyridin-2-yl-pyrimidin-2-yl)-(5-trifluoromethyl-pyridin-2-yl)-amine]	5 to 30
COc1cnc(-c2ccccn2)nc1Nc1ccc(C(F)(F)F)cn1 [(5-Methoxy-2-pyridin-2-yl-pyrimidin-4-yl)-(5-trifluoromethyl-pyridin-2-yl)-amine]	5 to 30
c1ccc(Nc2nc(-c3ccccn3)c3ccccc3n2)nc1 [Pyridin-2-yl-(4-pyridin-2-yl-quinazolin-2-yl)-amine]	5 to 30
c1ccc(Nc2nccc(-c3ccccn3)n2)nc1 [Pyridin-2-yl-(4-pyridin-2-yl-pyrimidin-2-yl)-amine]	< 0.1
Clc1ccc(Nc2nccc(-c3ccccn3)n2)nc1 [(5-Chloro-pyridin-2-yl)-(4-pyridin-2-yl-pyrimidin-2-yl)-amine]	0.1 to 1
Cc1nc(-c2ccccn2)nc(Nc2ccc(C(F)(F)F)cn2)c1Cl [(5-Chloro-6-methyl-2-pyridin-2-yl-pyrimidin-4-yl)-(5-trifluoromethyl-pyridin-2-yl)-amine]	5 to 30
COc1cnc(-c2ccccn2)nc1Nc1ccccn1 [(5-Methoxy-2-pyridin-2-yl-pyrimidin-4-yl)-pyridin-2-yl-amine]	0.1 to 1
COc1cnc(-c2ccccn2)nc1Nc1ccc(Cl)cn1 [(5-Chloro-pyridin-2-yl)-(5-methoxy-2-pyridin-2-yl-pyrimidin-4-yl)-amine]	0.1 to 1
COc1ccc(Nc2nc(-c3ccccn3)ncc2OC)nc1 [(5-Methoxy-pyridin-2-yl)-(5-methoxy-2-pyridin-2-yl-pyrimidin-4-yl)-amine]	< 0.1

Now from value to compound:

IC50 [µM]	Compound
< 0.1	COc1cnc(-c2ccccn2)nc1Nc1cc(C)ccn1 [(5-Methoxy-2-pyridin-2-yl-pyrimidin-4-yl)-(4-methyl-pyridin-2-yl)-amine]
5 to 30	Cc1cc(Nc2ccccn2)nc(-c2ccccn2)n1 [(6-methyl-2-pyridin-2-yl-pyrimidin-4-yl)-pyridin-2-yl-amine]
< 0.1	COc1cnc(-c2ccccn2)nc1Nc1ccc(N2CCCC2)cn1 [(5-Methoxy-2-pyridin-2-yl-pyrimidin-4-yl)-(5-pyrrolidin-1-yl-pyridin-2-yl)-amine]
0.1 to 1	COc1cnc(-c2ccccn2)nc1Nc1ccc(N(C)C)cn1 [N^2-(5-Methoxy-2-pyridin-2-yl-pyrimidin-4-yl)-N5,N5-dimethyl-pyridine-2,5-diamine]
< 0.1	Cc1ccnc(Nc2nccc(-c3ccccn3)n2)c1 [(4-Methyl-pyridin-2-yl)-(4-pyridin-2-yl-pyrimidin-2-yl)-amine]
0.1 to 1	COc1cnc(-c2ccccn2)nc1Nc1ccc(N2CCN(C)CC2)cn1 [(5-Methoxy-2-pyridin-2-yl-pyrimidin-4-yl)-[5-(4-methyl-piperazin-1-yl)-pyridin-2-yl]-amine]
0.1 to 1	COc1cnc(-c2ccccn2)nc1Nc1ccc(-c2ccc(C)o2)cn1 [(5-Methoxy-2-pyridin-2-yl-pyrimidin-4-yl)-[5-(5-methyl-furan-2-yl)-pyridin-2-yl]-amine]
1 to 5	Clc1ccc(Nc2ccnc(-c3ccccn3)n2)nc1 [(5-Chloro-pyridin-2-yl)-(2-pyridin-2-yl-pyrimidin-4-yl)-amine]
0.1 to 1	COc1cnc(-c2ccccn2)nc1Nc1ccc(F)cn1 [(5-Fluoro-pyridin-2-yl)-(5-methoxy-2-pyridin-2-yl-pyrimidin-4-yl)-amine]
< 0.1	COc1cnc(-c2ccccn2)nc1Nc1ccc(N)cn1 [N^2-(5-Methoxy-2-pyridin-2-yl-pyrimidin-4-yl)-pyridine-2,5-diamine]
5 to 30	FC(F)(F)c1ccc(Nc2cc(-c3ccccn3)nc(-c3ccccn3)n2)nc1 [(2,6-Di-pyridin-2-yl-pyrimidin-4-yl)-(5-trifluoromethyl-pyridin-2-yl)-amine]
5 to 30	COc1cnc(-c2ccccn2)nc1Nc1ccc(Br)cn1 [(5-Bromo-pyridin-2-yl)-(5-methoxy-2-pyridin-2-yl-pyrimidin-4-yl)-amine]
0.1 to 1	COc1cnc(-c2ccccn2)nc1Nc1ccc(-c2ccccc2)cn1 [(5-Methoxy-2-pyridin-2-yl-pyrimidin-4-yl)-(5-phenyl-pyridin-2-yl)-amine]
0.1 to 1	c1ccc(Nc2nc(-c3ccccn3)nc3ccccc23)nc1 [Pyridin-2-yl-(2-pyridin-2-yl-quinazolin-4-yl)-amine]
< 0.1	COc1cnc(-c2ccccn2)nc1Nc1ccc(-c2ccsc2)cn1 [(5-Methoxy-2-pyridin-2-yl-pyrimidin-4-yl)-(5-thiophen-3-yl-pyridin-2-yl)-amine]
< 0.1	COc1cnc(-c2ccccn2)nc1Nc1ccc(N2CCC(C)CC2)cn1 [(5-Methoxy-2-pyridin-2-yl-pyrimidin-4-yl)-(4-methyl-3,4,5,6-tetrahydro-2H-[1,3′]bipyridinyl-6′-yl)-amine]
1 to 5	Cc1cccc(-c2ccnc(Nc3ccccn3)n2)n1 [[4-(6-methyl-pyridin-2-yl)-pyrimidin-2-yl]-pyridin-2-yl-amine]
1 to 5	Clc1cc(-c2ccccn2)nc(-c2ccccn2)n1 [4-Chloro-2,6-di-pyridin-2-yl-pyrimidine]
5 to 30	c1ccc(Nc2cc(-c3ccccn3)nc(-c3ccccn3)n2)nc1 [(2,6-Di-pyridin-2-yl-pyrimidin-4-yl)-pyridin-2-yl-amine]
0.1 to 1	COc1cnc(-c2ccccn2)nc1Nc1ccc(-c2cccc(F)c2)cn1 [[5-(3-Fluoro-phenyl)-pyridin-2-yl]-(5-methoxy-2-pyridin-2-yl-pyrimidin-4-yl)-amine]
5 to 30	CN(c1ccccn1)c1nccc(-c2ccccn2)n1 [Methyl-pyridin-2-yl-(4-pyridin-2-yl-pyrimidin-2-yl)-amine]
1 to 5	Cc1cccc(-c2nccc(Nc3ccccn3)n2)n1 [[2-(6-methyl-pyridin-2-yl)-pyrimidin-4-yl]-pyridin-2-yl-amine]
5 to 30	COc1cnc(-c2ccccn2)nc1NNc1ccccn1 [N-(5-Methoxy-2-pyridin-2-yl-pyrimidin-4-yl)-N′-pyridin-2-yl-hydrazine]
< 0.1	COc1cnc(-c2ccccn2)nc1Nc1ccc(-c2cccs2)cn1 [(5-Methoxy-2-pyridin-2-yl-pyrimidin-4-yl)-(5-thiophen-2-yl-pyridin-2-yl)-amine]
0.1 to 1	c1ccc(-c2ccc(Nc3nccc(-c4ccccn4)n3)nc2)cc1 [(5-Phenyl-pyridin-2-yl)-(4-pyridin-2-yl-pyrimidin-2-yl)-amine]

biological target: SK2 subtype channels (Rattus norvegicus, UniProt P70604); test: not given; conditions: patch clamp; cited from earlier work

Compound	block of SK2 channel currents
CN(C)CCC=C1c2ccccc2CCc2ccccc21 [amitriptyline]	block SK2 channel currents with micromolar affinity
Nc1c2c(nc3ccccc13)CCCC2 [tacrine]	block SK2 channel currents with micromolar affinity
NC(=O)N1c2ccccc2C=Cc2ccccc21 [carbamazepine]	block SK2 channel currents with micromolar affinity

biological target: T1, recombinant human SK4 (hIK1 or hKCa4) channels (Homo sapiens, UniProt O15554+P0DP23); test: not given; conditions: applied to the inside of SK4 channel-expressing membrane patches; cited from earlier work
T1 construct: host or cells: HEK 293

Compound	activation of SK4 channels
magnesium	did not activate
lead	activated SK4 channels in a concentration-dependent manner
zinc	did not activate
cadmium	activated SK4 channels in a concentration-dependent manner
Barium	activated SK4 channels in a concentration-dependent manner
calcium	activated SK4 channels in a concentration-dependent manner
iron	did not activate
cobalt	did not activate
strontium	activated SK4 channels in a concentration-dependent manner
